In EP0584797A2, “Novel cephalosporin compounds and processes for the preparation thereof” (LUCKY LTD., priority 1992, dated 1994):
In brackets after ≈: the same amount, converted by molar mass.

How the values were obtained:
Experiment in all cases: minimal inhibitory concentration, two-fold agar dilution
Type in all cases: cell-based
[1] = test system: Bacillus megaterium ATCC 9885; details: Priestia megaterium, ATCC9885; Muller-Hinton agar; 37°C; 20 hours; read-out: MIC values against the standard strains
Experimental: (§1) These MIC values were taken by employing a two-fold dilution method: that is, two-fold serial dilutions of each of the test compounds were made and dispersed in a Muller-Hinton agar medium; 2µl of the standard test strain which had the 10⁷ CFU(Colony Forming Unit) per ml was inoculated on the medium; and these were incubated at 37°C for 20 hours.

[2] = test system: Enterobacter aerogenes ATCC 29751; details: Klebsiella aerogenes, ATCC29751; Muller-Hinton agar; 37°C; 20 hours; read-out: MIC values against the standard strains
Experimental: as §1

[3] = test system: Acinetobacter calcoaceticus ATCC 15473; details: ATCC15473, Muller-Hinton agar, 37°C, 20 hours, read-out: MIC values against the standard strains
Experimental: as §1

[4] = test system: Escherichia coli ATCC 10536; details: ATCC10536, Muller-Hinton agar, 37°C, 20 hours, read-out: MIC values against the standard strains
Experimental: as §1

[5] = test system: Pseudomonas aeruginosa ATCC 25619; details: ATCC25619, Muller-Hinton agar, 37°C, 20 hours, read-out: MIC values against the standard strains
Experimental: as §1

[6] = test system: Staphylococcus aureus ATCC 6538p; details: ATCC6538P, Muller-Hinton agar, 37°C, 20 hours, read-out: MIC values against the standard strains
Experimental: as §1

[7] = test system: Escherichia coli ATCC 25922; details: ATCC25922, Muller-Hinton agar, 37°C, 20 hours, read-out: MIC values against the standard strains
Experimental: as §1

[8] = test system: Staphylococcus epidermidis ATCC 12228; details: ATCC12228, Muller-Hinton agar, 37°C, 20 hours, read-out: MIC values against the standard strains
Experimental: as §1

[9] = test system: Proteus vulgaris ATCC 6059; details: ATCC6059, Muller-Hinton agar, 37°C, 20 hours, read-out: MIC values against the standard strains
Experimental: as §1

[10] = test system: Salmonella typhimurium ATCC 14028; details: Salmonella enterica; Muller-Hinton agar; 37°C; 20 hours; read-out: MIC values against the standard strains
Experimental: as §1

[11] = test system: Shigella sonnei ATCC 11060; details: ATCC11060, Muller-Hinton agar, 37°C, 20 hours, read-out: MIC values against the standard strains
Experimental: as §1

[12] = test system: Proteus mirabilis ATCC 25933; details: ATCC25933, Muller-Hinton agar, 37°C, 20 hours, read-out: MIC values against the standard strains
Experimental: as §1

[13] = test system: Pseudomonas aeruginosa ATCC 10145; details: ATCC10145, Muller-Hinton agar, 37°C, 20 hours, read-out: MIC values against the standard strains
Experimental: as §1

[14] = test system: Bacillus cereus ATCC 11778; details: ATCC11778, Muller-Hinton agar, 37°C, 20 hours, read-out: MIC values against the standard strains
Experimental: as §1

[15] = test system: Morganella morganii ATCC 8076h; details: ATCC8076H, Muller-Hinton agar, 37°C, 20 hours, read-out: MIC values against the standard strains
Experimental: as §1

[16] = test system: Streptococcus faecalis ATCC 29212; details: Enterococcus faecalis, ATCC29212; Muller-Hinton agar; 37°C; 20 hours; read-out: MIC values against the standard strains
Experimental: as §1

[17] = test system: Pseudomonas aeruginosa ATCC 27853; details: ATCC27853, Muller-Hinton agar, 37°C, 20 hours, read-out: MIC values against the standard strains
Experimental: as §1

[18] = test system: Citrobacter freundii ATCC 8090; details: ATCC8090, Muller-Hinton agar, 37°C, 20 hours, read-out: MIC values against the standard strains
Experimental: as §1

[19] = test system: Micrococcus luteus ATCC 9341; details: ATCC9341, Muller-Hinton agar, 37°C, 20 hours, read-out: MIC values against the standard strains
Experimental: as §1

[20] = test system: Klebsiella pneumoniae ATCC 10031; details: ATCC10031, Muller-Hinton agar, 37°C, 20 hours, read-out: MIC values against the standard strains
Experimental: as §1

[21] = test system: Providencia rettgeri ATCC 9250; details: ATCC9250, Muller-Hinton agar, 37°C, 20 hours, read-out: MIC values against the standard strains
Experimental: as §1

[22] = test system: Enterobacter cloacae ATCC 27508; details: ATCC27508, Muller-Hinton agar, 37°C, 20 hours, read-out: MIC values against the standard strains
Experimental: as §1

[23] = test system: Staphylococcus aureus ATCC 10537; details: ATCC10537, Muller-Hinton agar, 37°C, 20 hours, read-out: MIC values against the standard strains
Experimental: as §1

[24] = test system: Shigella flexneri ATCC 11836; details: ATCC11836, Muller-Hinton agar, 37°C, 20 hours, read-out: MIC values against the standard strains
Experimental: as §1

[25] = test system: Serratia marcescens ATCC 27117; details: ATCC27117, Muller-Hinton agar, 37°C, 20 hours, read-out: MIC values against the standard strains
Experimental: as §1

Row | SMILES | MIC [1] [µg/mL] | MIC [2] [µg/mL] | MIC [3] [µg/mL] | MIC [4] [µg/mL] | MIC [5] [µg/mL] | MIC [6] [µg/mL] | MIC [7] [µg/mL] | MIC [8] [µg/mL] | MIC [9] [µg/mL] | MIC [10] [µg/mL] | MIC [11] [µg/mL] | MIC [12] [µg/mL] | MIC [13] [µg/mL] | MIC [14] [µg/mL] | MIC [15] [µg/mL] | MIC [16] [µg/mL] | MIC [17] [µg/mL] | MIC [18] [µg/mL] | MIC [19] [µg/mL] | MIC [20] [µg/mL] | further results
1 | CCO/N=C(\C(=O)N[C@@H]1C(=O)N2C(C(=O)[O-])=C(CSc3nc(N)c4ccccc4[n+]3C)CS[C@H]12)c1csc(N)n1 [Example 29, 7-[(Z)-2-(2-aminothiazol-4-yl)-2-(ethoxyimino)acetamido]-3-(4-amino-1-methylbenzo-[5,6,e]pyrimidinium-2-yl)thiomethyl-3-cephem-4-carboxylate] | 0.063 (≈ 0.105 µM) | 0.25 (≈ 0.416 µM) | 16 (≈ 26.6 µM) | 0.13 (≈ 0.216 µM) | 4 (≈ 6.66 µM) | 0.13 (≈ 0.216 µM) | 0.13 (≈ 0.216 µM) | 0.031 (≈ 0.0516 µM) | 0.5 (≈ 0.832 µM) | 0.5 (≈ 0.832 µM) | 0.25 (≈ 0.416 µM) | 0.5 (≈ 0.832 µM) | 16 (≈ 26.6 µM) | 16 (≈ 26.6 µM) | ≤ 0.008 | 16 (≈ 26.6 µM) | 16 (≈ 26.6 µM) | 0.13 (≈ 0.216 µM) | 0.016 (≈ 0.0266 µM) | ≤ 0.008 | MIC [21]: ≤ 0.008 µg/mL; MIC [22]: ≤ 0.008 µg/mL; MIC [23]: 0.13 µg/mL (≈ 0.216 µM); MIC [24]: 0.063 µg/mL (≈ 0.105 µM); MIC [25]: 0.5 µg/mL (≈ 0.832 µM)
2 | CC(C)(O/N=C(\C(=O)N[C@@H]1C(=O)N2C(C(=O)[O-])=C(CSc3nc(N)c(N)c[n+]3N)CS[C@H]12)c1csc(N)n1)C(=O)O [Example 47, 7-[(Z)-2-(2-aminothiazol-4-yl)-2-(carboxyprop-2-oxyimino)acetamido]-3-(1,4,5-triaminopyrimidinium-2-yl)thiomethyl-3-cephem-4-carboxylate] | 0.5 (≈ 0.8 µM) | 1 (≈ 1.6 µM) | 16 (≈ 25.6 µM) | 0.031 (≈ 0.0496 µM) | 1 (≈ 1.6 µM) | 4 (≈ 6.4 µM) | 0.031 (≈ 0.0496 µM) | 2 (≈ 3.2 µM) | 0.063 (≈ 0.101 µM) | 0.13 (≈ 0.208 µM) | 0.031 (≈ 0.0496 µM) | 0.063 (≈ 0.101 µM) | 2 (≈ 3.2 µM) | 128 (≈ 205 µM) | ≤ 0.008 | > 128 | 2 (≈ 3.2 µM) | 0.031 (≈ 0.0496 µM) | 0.25 (≈ 0.4 µM) | 0.031 (≈ 0.0496 µM) | MIC [21]: ≤ 0.008 µg/mL; MIC [22]: ≤ 0.008 µg/mL; MIC [23]: 2 µg/mL (≈ 3.2 µM); MIC [24]: 0.031 µg/mL (≈ 0.0496 µM); MIC [25]: 0.13 µg/mL (≈ 0.208 µM)
3 | CCO/N=C(\C(=O)N[C@@H]1C(=O)N2C(C(=O)[O-])=C(CSc3nc(N)c4cccnc4[n+]3C)CS[C@H]12)c1csc(N)n1 [Example 31, 7-[(Z)-2-(2-aminothiazol-4-yl)-2-(ethoxyimino)acetamido]-3-(6-amino-3-methylpyrido[5,6,e]pyrimidinium-4-yl)thiomethyl-3-cephem-4-carboxylate] | 0.13 (≈ 0.216 µM) | 0.5 (≈ 0.831 µM) | 16 (≈ 26.6 µM) | 0.25 (≈ 0.415 µM) | 4 (≈ 6.65 µM) | 0.13 (≈ 0.216 µM) | 0.13 (≈ 0.216 µM) | 0.063 (≈ 0.105 µM) | 1 (≈ 1.66 µM) | 1 (≈ 1.66 µM) | 0.25 (≈ 0.415 µM) | 1 (≈ 1.66 µM) | 32 (≈ 53.2 µM) | 32 (≈ 53.2 µM) | 0.016 (≈ 0.0266 µM) | 16 (≈ 26.6 µM) | 16 (≈ 26.6 µM) | 0.25 (≈ 0.415 µM) | 0.031 (≈ 0.0515 µM) | ≤ 0.008 | MIC [21]: 0.016 µg/mL (≈ 0.0266 µM); MIC [22]: 0.016 µg/mL (≈ 0.0266 µM); MIC [23]: 0.13 µg/mL (≈ 0.216 µM); MIC [24]: 0.13 µg/mL (≈ 0.216 µM); MIC [25]: 1 µg/mL (≈ 1.66 µM)
